The record followed here is patent US8853230B2, “Inhibitors of JAK” (Portola Pharmaceuticals, Inc., priority 2009, dated 2014).

What is called pIC50 is −log10 of the IC50, conventionally taken in molar units.

Common to all, as to format: biochemical
The target in experiment [1] is T1, JAK1 (Homo sapiens, UniProt P23458).
T1 construct: 5 μl of catalytic domain recombinant Kinase enzyme+Tyr peptide substrate (Invitrogen, Calif.); purchased Invitrogen
Put plainly: Z'-LYTE kinase assay, JAK1 tyrosine phosphorylation activity. To be noted: read-out: JAK 1 IC50. On the procedure: (§1) JAK and TYK2 tyrosine phosphorylation activity is measured using the Z′-LYTE™ Technology developed by Invitrogen Corporation (Carlsbad, Calif.). For JAK1, JAK2 and JAK3 the Z′-LYTE™ Kinase Assay Kit-Tyr6 Peptide (part number PV4122) was used. For TYK2 the Z′-LYTE™ Kinase Assay Kit-Tyr6 Peptide (part number PV3192) was used. The Z′-LYTE™ biochemical assay employs a fluorescence resonance energy transfer (FRET) coupled-enzyme format and is based on the differential sensitivity of phosphorylated and non-phosphorylated peptides to proteolitic cleavage. The assay uses a synthetic peptide substrate that is labelled with a donor fluorophore (coumarin) and an acceptor fluorophore (fluorescein) that make up a FRET pair. In the primary reaction (the Kinase Reaction), the kinase transfers the γ-phosphate of ATP to a single tyrosine residue on the substrate, while the presence of a kinase inhibitor in the primary reaction suppresses phosphorylation. In the secondary reaction (the Development Reaction), a site-specific protease (the Development Reagent) is added. The development buffer quenches the Kinase Reaction, while the protease recognizes and cleaves non-phosphorylated Z′-LYTE™ peptide substrate. Cleavage disrupts FRET between the donor and acceptor fluorophores on the non-phosphoryleted substrate, while uncleaved, phosphorylated substrate maintains FRET.
(§2) To test the ability of candidate molecules to inhibit JAK tyrosine phosphorylation activity, molecules are reconstituted in 100% DMSO and serially diluted 1:10 in polypropylene v-bottom microtiter plates. The candidate molecules are then diluted 1:25 into kinase buffer and 2.5 μl transferred into duplicate wells of a 384 well low volume black microtiter assay plate (Corning, USA). The final DMSO concentration in the assay is 1%. The kinase reaction contains 2.5 μl of a candidate molecule, 5 μl of catalytic domain recombinant Kinase enzyme+Tyr peptide substrate (Invitrogen, Calif.) and 2.5 μl ATP (Invitrogen, Calif.). The kinase reaction is allowed to procede for 1 hour at room temperature. The protease reaction is initiated by the addition of 5 μl Development Reagent (Invitrogen, Calif.). After 1 hour incubation at room temperature the fluorescence is measured using a FlexStation plate reader (Molecular Devices, Sunnyvale, Calif.). The reader settings used are as follows: Fluorescence mode, endpoint, top read, excitation 400 nm, emission 445 nm and 520 nm, Auto Cutoff 435 nm and 515 nm, PMT sensitivity high, 6 reads per well. Inhibition of JAK activity is calculated as the percent phosphorylation of substrate in the presence of inhibitor compared to the percent phosphorylation of substrate in the absence of inhibitor. IC50's were derived using Xlfit 4.3 (IDBS, UK), 4 parameter logistic model 205: Y=(A+((B−A)/(1+((C/x)^D)))).

Experiment [2] has as its target T2, TYK2 (Homo sapiens, UniProt P29597).
T2 construct: 5 μl of catalytic domain recombinant Kinase enzyme+Tyr peptide substrate (Invitrogen, Calif.); purchased Invitrogen
T2 sequence (P29597 897-1176 limits assumed): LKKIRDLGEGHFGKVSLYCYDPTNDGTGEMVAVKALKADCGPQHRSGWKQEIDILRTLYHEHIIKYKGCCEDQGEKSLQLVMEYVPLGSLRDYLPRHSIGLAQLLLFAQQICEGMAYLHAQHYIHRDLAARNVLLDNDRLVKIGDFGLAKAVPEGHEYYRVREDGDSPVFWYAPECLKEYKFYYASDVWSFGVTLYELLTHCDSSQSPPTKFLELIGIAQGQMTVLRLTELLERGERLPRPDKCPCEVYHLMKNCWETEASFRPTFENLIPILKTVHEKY
Kind of experiment: Z'-LYTE kinase assay, TYK2 tyrosine phosphorylation activity. On the procedure:
as §1, §2

Experiment [3] concerns the target T3, JAK2 (Homo sapiens, UniProt O60674).
T3 construct: 5 μl of catalytic domain recombinant Kinase enzyme+Tyr peptide substrate (Invitrogen, Calif.); purchased Invitrogen
Put plainly: Z'-LYTE kinase assay, JAK2 tyrosine phosphorylation activity. On the procedure:
as §1, §2

The target of experiment [4] is T4, JAK3 (Homo sapiens, UniProt P52333).
T4 construct: 5 μl of catalytic domain recombinant Kinase enzyme+Tyr peptide substrate (Invitrogen, Calif.); purchased Invitrogen
T4 sequence (P52333 822-1111 limits assumed): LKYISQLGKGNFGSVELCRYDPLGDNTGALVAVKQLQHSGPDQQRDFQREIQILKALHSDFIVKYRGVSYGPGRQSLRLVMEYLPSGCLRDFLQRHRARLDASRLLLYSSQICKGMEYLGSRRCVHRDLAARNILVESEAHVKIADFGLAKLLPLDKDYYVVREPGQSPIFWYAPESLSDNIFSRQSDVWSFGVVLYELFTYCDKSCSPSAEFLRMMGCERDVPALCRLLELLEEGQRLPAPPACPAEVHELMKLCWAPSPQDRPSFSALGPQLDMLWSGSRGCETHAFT
Kind of experiment: Z'-LYTE kinase assay, JAK3 tyrosine phosphorylation activity. On the procedure:
as §1, §2

Molecules are shown by their SMILES. pIC50: −log10 of the molar value.

T1 sequence (P23458 875-1153 limits assumed): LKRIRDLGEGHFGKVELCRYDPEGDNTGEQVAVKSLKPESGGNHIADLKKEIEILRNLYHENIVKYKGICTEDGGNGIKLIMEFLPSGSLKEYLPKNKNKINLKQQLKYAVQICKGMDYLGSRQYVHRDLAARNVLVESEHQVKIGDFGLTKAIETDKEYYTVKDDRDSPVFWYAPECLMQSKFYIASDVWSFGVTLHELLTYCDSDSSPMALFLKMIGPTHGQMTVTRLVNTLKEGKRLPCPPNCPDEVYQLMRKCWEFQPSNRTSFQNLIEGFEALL
T3 sequence (O60674 849-1124 limits assumed): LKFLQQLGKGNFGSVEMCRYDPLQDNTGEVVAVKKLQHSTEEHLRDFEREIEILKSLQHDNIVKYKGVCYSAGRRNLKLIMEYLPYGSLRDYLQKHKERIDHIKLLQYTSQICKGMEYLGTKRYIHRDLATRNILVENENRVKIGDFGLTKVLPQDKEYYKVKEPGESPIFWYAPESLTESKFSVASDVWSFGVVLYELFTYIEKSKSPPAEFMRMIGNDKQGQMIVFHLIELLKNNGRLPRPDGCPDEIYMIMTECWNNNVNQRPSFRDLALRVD

With `NC(=O)c1cnc(Nc2cccc(N(C(=O)C3CC3)C3CC3)c2)nc1NCc1ccccc1` [Example 151, 4-(benzylamino)-2-(3-(N-cyclopropylcyclopropanecarboxamido)phenylamino)pyrimidine-5-carboxamide], the negative logarithm of the IC50 (pIC50) in experiment [1], in experiment [2], in experiment [3] and in experiment [4] was less than 6.00 throughout.

As for `CC(=O)Nc1cccc(Nc2ncc(C(N)=O)c(NCc3cccnc3)n2)c1` [Example 188, 2-(3-acetamidophenylamino)-4-(pyridin-3-ylmethylamino)pyrimidine-5-carboxamide], the pIC50 is 6.00 to 7.00 in experiment [1], 7.00 to 8.00 in experiment [2], 7.00 to 8.00 in experiment [3] and 8.00 to 9.00 in experiment [4].

In the case of `CC(=O)Nc1cccc(Nc2ncc(C(N)=O)c(NCc3ccc4c(c3)OCO4)n2)c1` [Example 99, 2-(3-acetamidophenylamino)-4-(benzo[d][1,3]dioxol-5-ylmethylamino)pyrimidine-5-carboxamide], the pIC50 was 6.00 to 7.00 in experiment [1], 7.00 to 8.00 in experiment [2], 7.00 to 8.00 in experiment [3] and 7.00 to 8.00 in experiment [4].

In the case of `CC(=O)Nc1cccc(Nc2cc(NCCc3ccccc3)c(C(N)=O)cn2)c1` [Example 338, 6-(3-acetamidophenylamino)-4-(phenethylamino)nicotinamide], the negative logarithm of the IC50 (pIC50) was less than 6.00 in experiment [1], 6.00 to 7.00 in experiment [2], less than 6.00 in experiment [3] and 6.00 to 7.00 in experiment [4].

As for `CC[C@H](C)Nc1nc(Nc2cccc(NC(=O)N3CCCC3)c2)ncc1C(N)=O` [Example 145], the pIC50 in experiment [1] is 7.00 to 8.00; in experiment [2], 7.00 to 8.00; in experiment [3], 7.00 to 8.00; in experiment [4] it was 8.00 to 9.00.

Consider `CC(=O)Nc1cccc(Nc2cc(NCC3CCC3)c(C(N)=O)cn2)c1` [Example 331, 6-(3-acetamidophenylamino)-4-(cyclobutylmethylamino)nicotinamide], for which the pIC50 in experiment [1] is 6.00 to 7.00; in experiment [2], 7.00 to 8.00; in experiment [3] it was 6.00 to 7.00; in experiment [4] it was 7.00 to 8.00.

With `CC(=O)Nc1cc(Nc2ncc(C(N)=O)c(NCc3ccccc3)n2)ccc1Cl` [Example 2, 2-(3-acetamido-4-chlorophenylamino)-4-(benzylamino)pyrimidine-5-carboxamide], the pIC50 in experiment [1] is 7.00 to 8.00; in experiment [2] it was 7.00 to 8.00; in experiment [3], 7.00 to 8.00; in experiment [4] it was 8.00 to 9.00.

In the case of `CC(=O)Nc1cccc(Nc2cc(NCc3ccc4c(c3)OCO4)c(C(N)=O)cn2)c1` [Example 334, 6-(3-acetamidophenylamino)-4-(benzo[d][1,3]dioxol-5-ylmethylamino)nicotinamide], the pIC50 was less than 6.00 in experiment [1], less than 6.00 in experiment [2], less than 6.00 in experiment [3] and 6.00 to 7.00 in experiment [4].

As for `CC(C)CNc1cc(Nc2cccc(NC(=O)N3CCCC3)c2)ncc1C(N)=O` [Example 324, 4-(isobutylamino)-6-(3-(pyrrolidine-1-carboxamido)phenylamino)nicotinamide], the pIC50 was 6.00 to 7.00 in experiment [1], 6.00 to 7.00 in experiment [2], 6.00 to 7.00 in experiment [3] and 7.00 to 8.00 in experiment [4].

As to `CNC(=O)c1cnc(Nc2cccc(NC(C)=O)c2)nc1NCc1ccccc1` [Example 112, 2-(3-acetamidophenylamino)-4-(benzylamino)-N-methylpyrimidine-5-carboxamide], the pIC50 in experiment [1], in experiment [2], in experiment [3] and in experiment [4] was less than 6.00 throughout.

Take `C[C@@H](Nc1cc(Nc2cccc(NC(=O)N3CCCC3)c2)ncc1C(N)=O)c1ccccc1` [Example 325, (R)-4-(1-phenylethylamino)-6-(3-(pyrrolidine-1-carboxamido)phenylamino)nicotinamide]: the pIC50 in experiment [1] was 6.00 to 7.00; in experiment [2] it was 6.00 to 7.00; in experiment [3], 6.00 to 7.00; in experiment [4] it was 8.00 to 9.00.

Regarding `CC[C@H](C)Nc1nc(Nc2cccc(NC(=O)COC)c2)ncc1C(N)=O` [Example 144, (S)-4-(sec-butylamino)-2-(3-(2-methoxyacetamido)phenylamino)pyrimidine-5-carboxamide], the pIC50 was 6.00 to 7.00 in experiment [1], 7.00 to 8.00 in experiment [2], 6.00 to 7.00 in experiment [3] and 7.00 to 8.00 in experiment [4].

Consider `CC(=O)Nc1cc(Nc2ncc(C(N)=O)c(Nc3cccc4nsnc34)n2)ccc1OCCCN1CCCCC1` [Example 243], for which the pIC50 in experiment [1] is 7.00 to 8.00; in experiment [2], 8.00 to 9.00; in experiment [3] it was 8.00 to 9.00; in experiment [4] it was 8.00 to 9.00.

Regarding `NC(=O)c1cnc(Nc2cccc(NC(=O)N3CCOCC3)c2)nc1NCc1cccc(F)c1` [Example 259], the pIC50 in experiment [1] is 7.00 to 8.00; in experiment [2] it was 8.00 to 9.00; in experiment [3] it was 8.00 to 9.00; in experiment [4], 8.00 to 9.00.

On to `NC(=O)c1cnc(Nc2cccc(NC(=O)N3CCCC3)c2)cc1NCc1cccc(F)c1` [Example 309, 4-(3-fluorobenzylamino)-6-(3-(pyrrolidine-1-carboxamido)phenylamino)nicotinamide], for which the pIC50 in experiment [1] was 6.00 to 7.00; in experiment [3], 7.00 to 8.00; in experiment [4], 8.00 to 9.00.

Regarding `NC(=O)c1cnc(Nc2cccc(NC(=O)N3CCC[C@@H](O)C3)c2)nc1NCc1ccccc1` [Example 212, (R)-4-(benzylamino)-2-(3-(3-hydroxypiperidine-1-carboxamido)phenylamino)pyrimidine-5-carboxamide], the pIC50 in experiment [2], in experiment [3] and in experiment [4] was 6.00 to 7.00 throughout.

As to `NC(=O)c1cnc(Nc2cccc(NC(=O)N3CCOCC3)c2)cc1NCc1cccnc1` [Example 319, N-(3-(5-carbamoyl-4-(pyridin-3-ylmethylamino)pyridin-2-ylamino)phenyl)morpholine-4-carboxamide], the pIC50 in experiment [1] was less than 6.00; in experiment [3] it was 6.00 to 7.00; in experiment [4], 7.00 to 8.00.

As to `NC(=O)c1cnc(Nc2cccc(NC(=O)N3CCOCC3)c2)cc1NCc1cccc(F)c1` [Example 308, N-(3-(5-carbamoyl-4-(3-fluorobenzylamino)pyridin-2-ylamino)phenyl)morpholine-4-carboxamide], the pIC50 in experiment [1] is 6.00 to 7.00; in experiment [3] it was 7.00 to 8.00; in experiment [4], 8.00 to 9.00.

For the compound `NC(=O)c1cnc(Nc2cccc(NC(=O)N3CCCC3)c2)cc1NCc1cccnc1` [Example 320, 4-(pyridin-3-ylmethylamino)-6-(3-(pyrrolidine-1-carboxamido)phenylamino)nicotinamide], the results for the pIC50 in experiment [1], in experiment [3] and in experiment [4] were less than 6.00, 6.00 to 7.00 and 7.00 to 8.00, respectively.

Take `CC(=O)Nc1cccc(Nc2cc(N[C@H](CO)c3ccccc3)c(C(N)=O)cn2)c1` [Example 316, (S)-6-(3-acetamidophenylamino)-4-(2-hydroxy-1-phenylethylamino)nicotinamide]: the pIC50 in experiment [1] was 6.00 to 7.00; in experiment [3], 6.00 to 7.00; in experiment [4], 7.00 to 8.00.

With `NC(=O)c1cnc(Nc2cccc(NC(=O)N3CCCC3)c2)cc1N[C@H](CO)c1ccccc1` [Example 315, (S)-4-(2-hydroxy-1-phenylethylamino)-6-(3-(pyrrolidine-1-carboxamido)phenylamino)nicotinamide], the pIC50 in experiment [1] was less than 6.00; in experiment [3], 6.00 to 7.00; in experiment [4], 8.00 to 9.00.

Take `CN(C)[C@@H]1CCN(C(=O)Nc2cccc(Nc3cc(NCc4cccnc4)c(C(N)=O)cn3)c2)C1` [Example 318, (R)-6-(3-(3-(dimethylamino)pyrrolidine-1-carboxamido)phenylamino)-4-(pyridin-3-ylmethylamino)nicotinamide]: the pIC50 is less than 6.00 in experiment [1], 6.00 to 7.00 in experiment [3] and 7.00 to 8.00 in experiment [4].
